Test results from patent US9937151B2, “Carbapenem antibacterials with gram-negative activity” (priority 2010, dated 2018).
In brackets after ≈: the same amount, converted by molar mass.

Test system: G(−) bacterial strains
Experiment: Dilution antimicrobial susceptibility tests (MIC, NCCLS agar dilution / broth dilution)
Assay type: cell-based, Gram-negative organisms
Settings: unit assumed
Description: The MIC (minimum inhibitory concentration) was determined by the NCCLS (National Committee for Clinical Laboratory Standards) methods 2000. Methods for dilution antimicrobial susceptibility testing for bacteria that growth aerobically (M7-A5, vol. 20, No. 2). The agar dilution method for determining antimicrobial susceptibility was carried out using Mueller-Hinton agar. A final inoculum of 10^4 CFU/spot was applied with an inoculation device. Broth dilution tests were performed with 5×10^5 CFU/well in 96 well plates. The susceptibilities of streptococci were determined by Mueller-Hinton agar supplemented with 5% sheep blood. All assays were run with the indicated control strains, available from the ATCC (American Type Culture Collection, Rockville, Md.).
Abbreviations used in Table 1 are defined as follows: Cf-R: Ceftazidime Resistance, Ci-R: Ciprofloxacin Resistance, Gen-R: Gentamycin Resistance, Imp-R: Imipenem Resistance, Mp-R: Meropenem Resistance, Ofx-R: Ofloxacin Resistance, B+: β-lactamase Production, AmpC: AmpC-lactamase Hyper production, CBPase: Carbapenemase Production.

[1] = strain #1 Acinetobacter calcoaceticus
[2] = strain #2 Acinetobacter baumannii, Cf-R, Ci-R
[3] = strain #3 Acinetobacter baumannii, Cf-R, Ci-R, Mp-I
[4] = strain #4 Acinetobacter baumannii, Cf-R, Imp-I, CBPase
[5] = strain #7 Enterobacter aerogenes
[6] = strain #8 Enterobacter cloacae, Cf-R, B+
[7] = strain #9 Enterobacter cloacae, Cf-R
[8] = strain #10 Escherichia coli, Ci-R
[9] = strain #11 Escherichia coli, Ci-R, AmpC
[10] = strain #15 Klebsiella pneumoniae
[11] = strain #16 Moraxella catarrhalis
[12] = strain #21 Providencia rettgeri
[13] = strain #22 Salmonella typhimurium
[14] = strain #25 Shigella dysenteriae
[15] = strain #28 Stenotrophomonas maltophilia
[16] = strain #29 Pseudomonas aeruginosa
[17] = strain #30 Pseudomonas aeruginosa
[18] = strain #31 Pseudomonas aeruginosa, Ofx-R
[19] = strain #32 Pseudomonas aeruginosa, Cf-R
[20] = strain #33 Pseudomonas aeruginosa, Ci-R
[21] = strain #34 Pseudomonas aeruginosa, Gen-R
[22] = strain #35 Pseudomonas aeruginosa, Ip-R
[23] = strain #36 Pseudomonas aeruginosa, Cf-R, Ci-R, Mp-R

Row | SMILES | MIC [1] | MIC [2] | MIC [3] | MIC [4] | MIC (strain #5 Citrobacter diversus) | MIC (strain #6 Citrobacter freundii) | MIC [5] | MIC [6] | MIC [7] | MIC [8] | MIC [9] | MIC (strain #12 Escherichia coli) | MIC (strain #13 Escherichia coli) | MIC (strain #14 Klebsiella oxytoca) | MIC [10] | MIC [11] | MIC (strain #17 Morganella Morganii) | MIC (strain #18 Morganella Morganii) | MIC (strain #19 Proteus vulgaris) | MIC (strain #20 Proteus mirabilis) | other results
1 | C[C@@H](O)C1C(=O)N2C(C(=O)O)=C(CN3CC(NS(N)(=O)=O)C3)[C@H](C)C12 (stereo partly drawn) [Compound 58] | 0.5 µg/mL (≈ 1.34 µM) | 2 µg/mL (≈ 5.34 µM) | 4 µg/mL (≈ 10.7 µM) | 2 µg/mL (≈ 5.34 µM) | 0.13 µg/mL (≈ 0.347 µM) | 0.25 µg/mL (≈ 0.668 µM) | 0.5 µg/mL (≈ 1.34 µM) | 0.13 µg/mL (≈ 0.347 µM) | 0.25 µg/mL (≈ 0.668 µM) | 0.13 µg/mL (≈ 0.347 µM) | 0.13 µg/mL (≈ 0.347 µM) | 0.13 µg/mL (≈ 0.347 µM) | 0.25 µg/mL (≈ 0.668 µM) | 0.25 µg/mL (≈ 0.668 µM) | 0.25 µg/mL (≈ 0.668 µM) | ≤ 0.008 µg/mL | 1 µg/mL (≈ 2.67 µM) | 1 µg/mL (≈ 2.67 µM) | 0.5 µg/mL (≈ 1.34 µM) | 0.25 µg/mL (≈ 0.668 µM) | MIC [12]: 0.5 µg/mL (≈ 1.34 µM); MIC [13]: 0.25 µg/mL (≈ 0.668 µM); MIC (strain #23 Serratia marcescens): 0.5 µg/mL (≈ 1.34 µM); MIC (strain #24 Serratia marcescens): 0.5 µg/mL (≈ 1.34 µM); MIC [14]: 0.25 µg/mL (≈ 0.668 µM); MIC (strain #26 Shigella sonnei): 0.25 µg/mL (≈ 0.668 µM); MIC (strain #27 Shigella flexneri): 0.13 µg/mL (≈ 0.347 µM); MIC [15]: 0.25 µg/mL (≈ 0.668 µM); MIC [16]: 8 µg/mL (≈ 21.4 µM); MIC [17]: 8 µg/mL (≈ 21.4 µM); MIC [18]: 4 µg/mL (≈ 10.7 µM); MIC [19]: 8 µg/mL (≈ 21.4 µM); MIC [20]: 8 µg/mL (≈ 21.4 µM); MIC [21]: 8 µg/mL (≈ 21.4 µM); MIC [22]: 16 µg/mL (≈ 42.7 µM); MIC [23]: 32 µg/mL (≈ 85.5 µM)
2 | C[C@@H](O)C1C(=O)N2C(C(=O)O)=C(CN3CC[C@H](NC(=N)N)C3)[C@H](C)C12 (stereo partly drawn) [Compound 64] | 0.13 µg/mL (≈ 0.37 µM) | 1 µg/mL (≈ 2.85 µM) | 1 µg/mL (≈ 2.85 µM) | 0.5 µg/mL (≈ 1.42 µM) | 0.5 µg/mL (≈ 1.42 µM) | 0.5 µg/mL (≈ 1.42 µM) | 1 µg/mL (≈ 2.85 µM) | 0.5 µg/mL (≈ 1.42 µM) | 0.5 µg/mL (≈ 1.42 µM) | 0.25 µg/mL (≈ 0.711 µM) | 0.25 µg/mL (≈ 0.711 µM) | 0.5 µg/mL (≈ 1.42 µM) | 0.5 µg/mL (≈ 1.42 µM) | 1 µg/mL (≈ 2.85 µM) | 1 µg/mL (≈ 2.85 µM) | ≤ 0.008 µg/mL | 4 µg/mL (≈ 11.4 µM) | 2 µg/mL (≈ 5.69 µM) | 1 µg/mL (≈ 2.85 µM) | 0.5 µg/mL (≈ 1.42 µM) | MIC [12]: 2 µg/mL (≈ 5.69 µM); MIC [13]: 0.5 µg/mL (≈ 1.42 µM); MIC (strain #23 Serratia marcescens): 1 µg/mL (≈ 2.85 µM); MIC (strain #24 Serratia marcescens): 2 µg/mL (≈ 5.69 µM); MIC [14]: 0.5 µg/mL (≈ 1.42 µM); MIC (strain #26 Shigella sonnei): 0.5 µg/mL (≈ 1.42 µM); MIC (strain #27 Shigella flexneri): 0.25 µg/mL (≈ 0.711 µM); MIC [15]: 0.25 µg/mL (≈ 0.711 µM); MIC [16]: 1 µg/mL (≈ 2.85 µM); MIC [17]: 1 µg/mL (≈ 2.85 µM); MIC [18]: 0.25 µg/mL (≈ 0.711 µM); MIC [19]: 2 µg/mL (≈ 5.69 µM); MIC [20]: 2 µg/mL (≈ 5.69 µM); MIC [21]: 2 µg/mL (≈ 5.69 µM); MIC [22]: 2 µg/mL (≈ 5.69 µM); MIC [23]: 16 µg/mL (≈ 45.5 µM)
